Test results published in the supplement of paper PMC12513837.
± gives the standard deviation of the averaged measurements.

Compound: CC(=O)N1CCc2c(c(N3CCCc4cc(-c5cnn(C)c5)c(C(F)F)cc43)nn2C2CCC(CN3CCN(c4ccc5c(c4)C(=O)N(C4CCC(=O)NC4=O)C5=O)CC3)CC2)C1 [CBPD-409]
Experiment: AUC of viability dose-response curve (relative to vehicle, 8 doses up to 10 µM) (fraction); higher = less sensitive (more viable); extreme values may be limits of the assay
Description: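 PRISM multiplexed pooled barcoded cell line viability screen at the Broad Institute, 887 cancer cell lines treated with CBPD-409 (p300/CBP PROTAC degrader) at 8 concentrations in threefold dilution, top dose 10 µM. The read-out is the area under the dose-response curve of relative viability versus vehicle (n=3). AUC < 0.3 is called strongly sensitive and AUC > 0.8 resistant.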

| Test System | AUC of viability dose-response curve |
| --- | --- |
| 8MGBA_CENTRAL_NERVOUS_SYSTEM | 0.79 |
| 22RV1_PROSTATE | 0.189 |
| 42MGBA_CENTRAL_NERVOUS_SYSTEM | 0.485 |
| 93T449_SOFT_TISSUE | 1 |
| 94T778_SOFT_TISSUE | 0.951 |
| 95T1000_SOFT_TISSUE | 0.44 |
| 143B_BONE | 1 |
| 253JBV_URINARY_TRACT | 1 |
| 253J_URINARY_TRACT | 1 |
| 639V_URINARY_TRACT | 0.515 |
| 647V_URINARY_TRACT | 0.394 |
| 697_HAEMATOPOIETIC_AND_LYMPHOID_TISSUE | 0.293 |
| 769P_KIDNEY | 0.395 |
| 786O_KIDNEY | 0.84 |
| 921_UVEA | 0.336 |
| 1618K_TESTIS | 0.518 |
| 1777NRPMET_TESTIS | 0.655 |
| 5637_URINARY_TRACT | 1 |
| 8305C_THYROID | 0.823 |
| 8505C_THYROID | 0.943 |
| 9505BIK_PANCREAS | 1 |
| 2313287_STOMACH | 0.631 |
| A3KAW_HAEMATOPOIETIC_AND_LYMPHOID_TISSUE | 0.325 |
| A101D_SKIN | 1 |
| A172_CENTRAL_NERVOUS_SYSTEM | 0.797 |

| Test System | AUC of viability dose-response curve |
| --- | --- |
| A253_SALIVARY_GLAND | 0.883 |
| A375_SKIN | 0.47 |
| A388_SKIN | 0.978 |
| A427_LUNG | 0.884 |
| A498_KIDNEY | 0.943 |
| A549_LUNG | 1 |
| A673_BONE | 1 |
| A704_KIDNEY | 0.942 |
| A1207_CENTRAL_NERVOUS_SYSTEM | 1 |
| A2058_SKIN | 1 |
| A2780_OVARY | 0.625 |
| ABC1_LUNG | 0.977 |
| ACCMESO1_PLEURA | 1 |
| ACHN_KIDNEY | 0.807 |
| AGS_STOMACH | 0.812 |
| ALLSIL_HAEMATOPOIETIC_AND_LYMPHOID_TISSUE | 0.917 |
| AM38_CENTRAL_NERVOUS_SYSTEM | 1 |
| AMO1_HAEMATOPOIETIC_AND_LYMPHOID_TISSUE | 0.46 |
| AN3CA_ENDOMETRIUM | 0.693 |
| ANGMCSS_CENTRAL_NERVOUS_SYSTEM | 1 |
| ASPC1_PANCREAS | 0.845 |
| AU565_BREAST | 1 |
| BC3C_URINARY_TRACT | 1 |
| BCPAP_THYROID | 0.885 |
| BDCM_HAEMATOPOIETIC_AND_LYMPHOID_TISSUE | 0.431 |

| Test System | AUC of viability dose-response curve |
| --- | --- |
| BECKER_CENTRAL_NERVOUS_SYSTEM | 0.88 |
| BEN_LUNG | 0.562 |
| BFTC905_URINARY_TRACT | 0.443 |
| BFTC909_KIDNEY | 1 |
| BHT101_THYROID | 0.581 |
| BHY_UPPER_AERODIGESTIVE_TRACT | 0.851 |
| BICR6_UPPER_AERODIGESTIVE_TRACT | 0.907 |
| BICR16_UPPER_AERODIGESTIVE_TRACT | 0.181 |
| BICR18_UPPER_AERODIGESTIVE_TRACT | 1 |
| BICR22_UPPER_AERODIGESTIVE_TRACT | 0.901 |
| BICR31_UPPER_AERODIGESTIVE_TRACT | 0.695 |
| BICR56_UPPER_AERODIGESTIVE_TRACT | 0.862 |
| BICR78_UPPER_AERODIGESTIVE_TRACT | 0.547 |
| BL2_HAEMATOPOIETIC_AND_LYMPHOID_TISSUE | 0.77 |
| BLUE1_HAEMATOPOIETIC_AND_LYMPHOID_TISSUE | 0.311 |
| BOKU_CERVIX | 0.581 |
| BT12_SOFT_TISSUE | 0.706 |
| BT16_SOFT_TISSUE | 1 |
| BT474_BREAST | 0.643 |
| BT549_BREAST | 1 |
| BV173_HAEMATOPOIETIC_AND_LYMPHOID_TISSUE | 0.271 |
| C4I_CERVIX | 0.999 |
| C32_SKIN | 0.562 |
| C33A_CERVIX | 1 |
| C75_LARGE_INTESTINE | 1 |

| Test System | AUC of viability dose-response curve |
| --- | --- |
| C80_LARGE_INTESTINE | 0.689 |
| C8166_HAEMATOPOIETIC_AND_LYMPHOID_TISSUE | 0.546 |
| CADOES1_BONE | 0.458 ± 0.12 |
| CAKI1_KIDNEY | 0.644 |
| CAL12T_LUNG | 0.645 |
| CAL27_UPPER_AERODIGESTIVE_TRACT | 0.961 |
| CAL29_URINARY_TRACT | 0.7 |
| CAL33_UPPER_AERODIGESTIVE_TRACT | 0.694 |
| CAL51_BREAST | 0.595 |
| CAL54_KIDNEY | 0.502 |
| CAL62_THYROID | 0.321 |
| CAL72_BONE | 0.839 |
| CAL78_BONE | 0.486 |
| CAL120_BREAST | 0.497 |
| CAL148_BREAST | 1 |
| CALU1_LUNG | 0.901 |
| CALU6_LUNG | 0.928 |
| CAMA1_BREAST | 0.746 |
| CAOV3_OVARY | 0.648 |
| CAPAN2_PANCREAS | 1 |
| CAS1_CENTRAL_NERVOUS_SYSTEM | 0.665 |
| CASKI_CERVIX | 0.376 |
| CBAGPN_BONE | 0.79 |
| CCFSTTG1_CENTRAL_NERVOUS_SYSTEM | 0.992 |
| CCK81_LARGE_INTESTINE | 0.86 |

| Test System | AUC of viability dose-response curve |
| --- | --- |
| CCLFPEDS0003T_SOFT_TISSUE | 0.392 |
| CCLP1_BILIARY_TRACT | 0.45 |
| CCSW1_BILIARY_TRACT | 0.832 |
| CFPAC1_PANCREAS | 1 |
| CH157MN_CENTRAL_NERVOUS_SYSTEM | 0.899 |
| CHAGOK1_LUNG | 0.748 |
| CHL1_SKIN | 0.148 |
| CHLA06ATRT_SOFT_TISSUE | 1 |
| CHLA10_BONE | 0.97 |
| CHLA15_AUTONOMIC_GANGLIA | 0.551 |
| CHLA57_BONE | 0.647 |
| CHLA200_CENTRAL_NERVOUS_SYSTEM | 0.168 |
| CI1_HAEMATOPOIETIC_AND_LYMPHOID_TISSUE | 0.674 |
| CJM_SKIN | 0.415 |
| CL11_LARGE_INTESTINE | 0.326 |
| CL34_LARGE_INTESTINE | 0.812 |
| CMLT1_HAEMATOPOIETIC_AND_LYMPHOID_TISSUE | 0.666 |
| COGAR359_SOFT_TISSUE | 1 |
| COGE352_BONE | 1 |
| COGN278_AUTONOMIC_GANGLIA | 0.345 |
| COLO320_LARGE_INTESTINE | 1 |
| COLO668_LUNG | 0.615 |
| COLO679_SKIN | 0.3 |
| COLO680N_OESOPHAGUS | 0.653 |
| COLO741_SKIN | 0.559 |

| Test System | AUC of viability dose-response curve |
| --- | --- |
| COLO783_SKIN | 0.837 |
| COLO792_SKIN | 0.804 |
| COLO800_SKIN | 0.67 |
| CORL23_LUNG | 1 |
| CORL88_LUNG | 0.612 |
| CORL105_LUNG | 0.747 |
| CORL279_LUNG | 1 |
| COV318_OVARY | 0.899 |
| COV362_OVARY | 0.887 |
| COV434_OVARY | 0.556 |
| COV644_OVARY | 0.92 |
| CW2_LARGE_INTESTINE | 1 |
| CW9019_SOFT_TISSUE | 0.735 |
| DANG_PANCREAS | 1 |
| DAOY_CENTRAL_NERVOUS_SYSTEM | 0.958 ± 0.059 |
| DBTRG05MG_CENTRAL_NERVOUS_SYSTEM | 0.854 |
| DEL_HAEMATOPOIETIC_AND_LYMPHOID_TISSUE | 1 |
| DETROIT562_UPPER_AERODIGESTIVE_TRACT | 0.68 |
| DKMG_CENTRAL_NERVOUS_SYSTEM | 0.733 |
| DL_SOFT_TISSUE | 0.471 |
